According to publication PMC9570838, “JND4135, a New Type II TRK Inhibitor, Overcomes TRK xDFG and Other Mutation Resistance In Vitro and In Vivo” (Molecules, 2022):

Assays:
TRKC WT [1] = assay: Bio-layer interferometry (BLI) Octet binding assay; design: species or system Human; settings: TRKC-WT and TRKC-G696C
Method: (§1) Biolayer interferometry (BLI) assays were performed with the Octet K2 machine (ForteBio, Inc., Fremont, CA, USA). […] Excess biotin was removed by column chromatography (PD MiniTrap^TM G-25 Desalting column, Lot#17030445), and the residue was diluted to 400 μL with PBS and immobilized onto Super streptavidin biosensor chips (ForteBio, Cat#18–5057). A duplicate set of sensors was incubated in an assay buffer (PBS containing 0.02% Tween20 and 0.1% BSA) with 5% DMSO but without protein for use as a background binding control. Both sets of sensors were blocked with a solution of 10 μg/mL biocytin for 1 min at rt. Drug concentrations ranged from 0.74 to 180 nmol/L (6 doses). Data was analyzed by the FortéBio Data Analysis 8.1 software (FortéBio, Fremont, CA, USA) using a double reference subtraction (sample and sensor references).

TRKC WT [2] = biological target: T1, TRKC WT (Homo sapiens, UniProt Q16288); assay: Bio-layer interferometry (BLI) Octet binding assay
T1 construct: residues 526–839 from the kinase domain; made in house
Method: as §1

BaF3 CD74-TRKA = assay: BaF3 cell proliferation, CCK-8 assay; settings: Mus musculus, BaF3, 72 h, read-out: IC50 (nM ± SD) WT CD74-TRKA
Method: (§3) Murine BaF3 cells were purchased from JRCB cell bank. The BaF3 cell lines, which stably express natively-fused TRKA/B/C or various point mutants, were self-established by following previously described procedures. Briefly, NTRK genes were totally synthesized and cloned into pCDNA3.1(+) vectors (Invitrogen, Carlsbad, CA, USA). […] Stable strains were established by selection of cells 2 weeks post-transfection with 800 μg/mL G418 (Merck, Whitehouse Station, NJ) and further selection after the withdrawal of interleukin-3 (IL-3, R&D) for 2 weeks. All of BaF3 stable cell lines were verified by DNA sequencing, protein expression and anti-proliferation activity against positive drugs. […] All cells were grown at 37 °C in a humidified 5% CO2 atmosphere.
(§4) Cells were placed in 96-well plates (5000~8000/well) in complete medium. […] IC50 values were calculated by concentration-response curve fitting using GraphPad Prism 5.0 software. Each IC50 value is expressed as mean ± SD.

BaF3 ETV6-TRKC = assay: BaF3 cell proliferation, CCK-8 assay; settings: Mus musculus, BaF3, 72 h, read-out: IC50 (nM ± SD) WT ETV6-TRKC
Method: as §3, §4

BaF3 EML4-TRKC = assay: BaF3 cell proliferation, CCK-8 assay; settings: Mus musculus, BaF3, 72 h, read-out: IC50 (nM ± SD) WT EML4-TRKC
Method: as §3, §4

TRKC-G696C = biological target: T2, TRKC-G696C (Homo sapiens, UniProt Q16288, G696C); assay: Bio-layer interferometry (BLI) Octet binding assay
T2 construct: residues 526–839 from the kinase domain; made in house
Method: Biolayer interferometry (BLI) assays were performed with the Octet K2 machine (ForteBio, Inc., Fremont, CA, USA). […] A duplicate set of sensors was incubated in an assay buffer (PBS containing 0.02% Tween20 and 0.1% BSA) with 5% DMSO but without protein for use as a background binding control. Both sets of sensors were blocked with a solution of 10 μg/mL biocytin for 1 min at rt. […] Data was analyzed by the FortéBio Data Analysis 8.1 software (FortéBio, Fremont, CA, USA) using a double reference subtraction (sample and sensor references).

BaF3 ETV6-TRKC-G696C = assay: BaF3 cell proliferation, CCK-8 assay; settings: Mus musculus, BaF3, 72 h, read-out: IC50 (nM ± SD) xDFG ETV6-TRKC-G696C
Method: as §3, §4

[3] = tested on: BaF3-CD74-TRKA-WT cells (p-TRKA, ERK, PLCγ); assay: Western blot of TRK signaling; type: cell-based, Murine; settings: 6 h treatment
Method: (§2) Cells were treated with various concentrations of each tested compound for a designated time. Then cells were lysed using 1 × SDS sample lysis buffer (CST recommended) with protease and phosphatase inhibitors. […] The films were blocked with 5% fat-free milk in TBS solution containing 0.5% Tween-20 for 4 h at room temperature, then incubated with the corresponding primary antibody (1:1000–1:200) overnight at 4 °C. After washing with TBST, HRP-conjugated secondary antibody was incubated for 2 h. The protein signals were visualized by ECL Western Blotting Detection Kit (Thermo Scientific, Waltham, MA, USA), and detected with Amersham Imager 600 system (GE, Boston, MA, USA).

[4] = tested on: BaF3-CD74-TRKA-G667C cells (p-TRKA, ERK, PLCγ); assay: Western blot of TRK signaling; type: cell-based, Murine; settings: 6 h treatment
Method: as §2

[5] = tested on: BaF3-CD74-TRKA-G595R cells (p-TRKA, ERK, PLCγ); assay: Western blot of TRK signaling; type: cell-based, Murine; settings: 6 h treatment
Method: as §2

BaF3 MPRIP-TRKA = assay: BaF3 cell proliferation, CCK-8 assay; settings: Mus musculus, BaF3, 72 h, read-out: IC50 (nM ± SD) WT MPRIP-TRKA
Method: as §3, §4

BaF3 ETV6-TRKB-G639R = assay: BaF3 cell proliferation, CCK-8 assay; settings: Mus musculus, BaF3, 72 h, read-out: IC50 (nM ± SD) Solvent Front ETV6-TRKB-G639R
Method: as §3, §4

BaF3 ETV6-TRKB-F633L = assay: BaF3 cell proliferation, CCK-8 assay; settings: Mus musculus, BaF3, 72 h, read-out: IC50 (nM ± SD) Gatekeeper ETV6-TRKB-F633L
Method: as §3, §4

BaF3 ETV6-TRKB-G709C = assay: BaF3 cell proliferation, CCK-8 assay; settings: Mus musculus, BaF3, 72 h, read-out: IC50 (nM ± SD) xDFG ETV6-TRKB-G709C
Method: as §3, §4

[6] = Pharmacokinetics in rats (Table S4); type: in vivo
[7] = tested on: parental BaF3 cells (phospho-ERK); assay: Western blot in parental BaF3 cells (Figure S1); type: cell-based, Murine; settings: parental BaF3 cells driven by IL-3 (Figure S1)
Method: as §2

SMILES: Cc1c(C#Cc2cnc3cnc(-c4ccc(N)cc4)cn23)cccc1C(=O)Nc1cc(CN2CCN(C)CC2)cc(C(C)C)c1 [JND4135, 3-((6-(4-aminophenyl)imidazo[1,2-a]pyrazin-3-yl)ethynyl)-N-(3-isopropyl-5-((4-methylpiperazin-1-yl)methyl)phenyl)-2-methylbenzamide]
- fold slower dissociation rate than that of control drugs (TRKC WT [1]): 3.81–27.85 fold
- koff (TRKC WT [2]; Koff, read-out: dissociation rate with TRKC-WT): 0.000278 s⁻¹
- Kd (TRKC WT [2]; read-out: Kd, binding affinity to TRKC-WT): 2.57 nM
- IC50 (BaF3 CD74-TRKA): 10.4 ± 3.2 nM
- IC50 (BaF3 ETV6-TRKC): 10.4 ± 4 nM
- IC50 (BaF3 EML4-TRKC): 13.2 ± 2.6 nM
- koff (TRKC-G696C; Koff, read-out: dissociation rate with TRKC-G696C): 0.00135 s⁻¹
- Kd (TRKC-G696C; read-out: Kd, binding affinity to TRKC-G696C): 3.68 nM
- IC50 (BaF3 ETV6-TRKC-G696C): 1.3 ± 0.7 nM
- concentration from which phosphorylation of TRKA and downstream ERK, PLCγ decreased [3]: 8 nM
- concentration from which phosphorylation of TRKA and downstream ERK, PLCγ decreased [4]: 1.6 nM
- concentration from which phosphorylation of TRKA and downstream ERK, PLCγ decreased [5]: 40 nM
- IC50 (BaF3 MPRIP-TRKA): 7.1 ± 2.3 nM
- IC50 (BaF3 ETV6-TRKB-G639R): 10.1 ± 3.9 nM
- IC50 (BaF3 ETV6-TRKB-F633L): 178 ± 4.3 nM
- IC50 (BaF3 ETV6-TRKB-G709C): 18.7 ± 2.9 nM
- absorption via oral administration [6]: almost no absorption
- effect on phospho-ERK levels [7]: increased the phospho-ERK levels
